From patent US20120251551A1, “Substituted (Heteroarylmethyl)thiohydantoins” (BAYER PHARMA AKTIENGESELLSCHAFT, priority 2009, published 2012)
Where a chain is given by its changes, count along the chain named. Read-outs that look alike come from different tables or passages of the source.

Assays:
[1] = target: T1, wild-type human androgen receptor (Homo sapiens, UniProt P10275); test: Cell-based transactivation assay for wild-type human androgen receptor (PC-3 cells, MMTV-luciferase reporter)
T1 construct: expressed in transfected cells
T1 sequence (P10275 1-920): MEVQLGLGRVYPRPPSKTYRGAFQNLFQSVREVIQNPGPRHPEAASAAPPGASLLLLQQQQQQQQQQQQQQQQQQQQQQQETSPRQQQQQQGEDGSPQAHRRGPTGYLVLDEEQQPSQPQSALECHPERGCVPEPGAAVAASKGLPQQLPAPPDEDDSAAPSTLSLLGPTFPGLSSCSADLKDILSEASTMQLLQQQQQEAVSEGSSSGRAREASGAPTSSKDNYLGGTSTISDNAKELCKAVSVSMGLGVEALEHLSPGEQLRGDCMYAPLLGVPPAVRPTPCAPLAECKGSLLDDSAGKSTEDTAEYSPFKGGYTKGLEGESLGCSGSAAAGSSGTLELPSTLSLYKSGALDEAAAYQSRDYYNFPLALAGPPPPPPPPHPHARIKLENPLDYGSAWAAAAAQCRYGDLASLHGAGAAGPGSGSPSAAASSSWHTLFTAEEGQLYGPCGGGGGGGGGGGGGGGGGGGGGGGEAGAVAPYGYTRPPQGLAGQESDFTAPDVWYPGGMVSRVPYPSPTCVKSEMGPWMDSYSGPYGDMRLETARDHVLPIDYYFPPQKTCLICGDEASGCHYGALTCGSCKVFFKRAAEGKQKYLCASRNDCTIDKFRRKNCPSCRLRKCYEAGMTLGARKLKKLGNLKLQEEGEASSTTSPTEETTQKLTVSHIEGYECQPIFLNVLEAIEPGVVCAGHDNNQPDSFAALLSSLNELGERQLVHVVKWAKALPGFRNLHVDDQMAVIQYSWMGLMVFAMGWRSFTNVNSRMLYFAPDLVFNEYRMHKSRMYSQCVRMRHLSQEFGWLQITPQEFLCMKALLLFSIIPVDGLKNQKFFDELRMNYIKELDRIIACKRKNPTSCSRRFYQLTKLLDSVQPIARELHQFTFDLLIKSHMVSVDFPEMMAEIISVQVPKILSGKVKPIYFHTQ
Method: Cell-Based Transactivation Assay for Wild-Type Human Androgen Receptor
PC-3 cells (Kaighn et al., Invest. Urol. 17:16-23, 1979) stably transfected with the human androgen receptor (Swiss-Prot Acc. No. P10275, Entry Version 159, Sequence Version 2) and a reporter plasmid based on pGL4.14 (#E6691, Promega Corporation, Madison, Wis., USA) containing the MMTV promoter (Cato et al., EMBO J. 6:363-8, 1987) were used. They were grown in 5% charcoal-stripped medium and seeded at a concentration of 1000 cells per well in a 384-well plate. For determination of antagonistic activity, the plate additionally contained the compound to be tested at a concentration range varying from 5.12×10^−12 to 1×10^−5 M. The assay was performed in presence of 1×10^−10 R1881 (also known as methyltrienolone). After overnight incubation at 37° C. in a 5% CO2 atmosphere, 15 μl of Steady Glo Lysis and Detection reagent (Steady Glo Luciferase assay system E2550 from Promega Corporation. Madison, Wis., USA) were added. IC50 was calculated for anti-androgenic activity as well as percentage inhibition in presence of 2 μM compound in comparison to non-stimulated luciferase signal. Agonistic activity was determined using the same concentration range of compound in the absence of R1881 by measuring Luciferase activity as above. EC50 was calculated for androgenic activity. Assay/read plates were used (Polystyrol; 384, NV-white cell culture plates; Perkin Elmer).

[2] = target: T2, human androgen receptor W741L mutant (Homo sapiens, UniProt P10275, W742L); test: Cell-based transactivation assay for human androgen receptor mutant W741L
T2 construct: expressed in transfected cells; host or cells: PC-3 cells, transient transfection with a pSG5-derived plasmid
T2 sequence (P10275 1-920 W742L): T1 sequence (P10275 1-920) with W742L
Method: Cell-Based Transactivation Assay for Human Androgen Receptor Mutant W741L or W741C
PC-3 cells (Kaighn et al., Invest. Urol. 17:16-23, 1979) were grown in 5% charcoal-stripped medium and seeded at a concentration of 10000 cells per well in a 96-well plate. They were transiently transfected with a pSG5-derived plasmid (#216201 from Stratagene, La Jolla, Calif., USA) coding for the human androgen receptor W741L or W741C mutant Mara et al., Cancer Research, 63: 149-153, 2003) and an MMTV-Luciferase reporter plasmid based on pGL4.14 14 (#E6691, Promega Corporation, Madison, Wis., USA). The compound to be tested was added at a concentration range varying from 1×10^−9 to 1×10 M together with 1×10^−10 R1881. After 24 h incubation at 37° C. in a 5% CO2 atmosphere, 100 μl of Steady Glo Lysis and Detection reagent (Steady Glo Luciferase assay system E2550 from Promega Corporation. Madison, Wis., USA) were added. Antagonistic activity was determined by measuring Luciferase activity in a Victor 3 Luminometer (PerkinElmer, Waltham, Mass., USA) using the Steady Glo Luciferase Assay (E2550, Promega). IC50 values were calculated for anti-androgenic activity.

[3] = system: LNCaP cells; test: Proliferation assay with LNCaP cells; type: cell-based; conditions: Homo sapiens, 168 h, R1881 (1×10^−10) stimulated growth, day 7, read-out: inhibition IC50 (LNCaP)
Method: Proliferation Assay with LNCaP Cells
LNCaP cells (Horoszewicz et al., in “Models for Prostate Cancer” (ed. G. P. Murphy), Alan R. Liss, New York 1981, p. 115-132; Horoszewicz et al., Cancer Res. 43:1809-1818, 1983) were seeded at 2000 cells/well in 96-well plates in RPMI (F1235, Biochrom AG, Berlin, Germany) without phenol red supplemented with 5% charcoal-stripped serum. After 3 days, the cells were treated with R1881) (1×10^−10) and compound (day 0). Cell number was determined by Alamar Blue (DAL1100, Invitrogen, Life Technologies, Lohne, Germany) staining (2.5 h) at day 0 and day 7. Fluorescence was determined in Victor3 (Excitation 530 nm; emission 590 nm). Stimulated growth was defined as the signal measured at day 7 for cells treated only with R1881. Basal level was defined as the signal measured at day 7 for cells grown without R1881.

[4] = target: T3, human androgen receptor E709Y mutant (Homo sapiens, UniProt P10275, E710Y); test: Cell-based transactivation assay for human androgen receptor mutant E709Y
T3 construct: expressed in transfected cells; host or cells: PC-3 cells, transient transfection with a pSG5-derived plasmid
T3 sequence (P10275 1-920 E710Y): T1 sequence (P10275 1-920) with E710Y
Method: Cell-Based Transactivation Assay for Human Androgen Receptor Mutant E709Y
PC-3 cells (Kaighn et al., Invest. Urol. 17:16-23, 1979) were grown in 5% charcoal-stripped medium and seeded at a concentration of 10000 cells per well in a 96-well plate. They were transiently transfected with a pSG5-derived plasmid (#216201 from Stratagene, La Jolla, Calif., USA) coding for the human androgen receptor E709Y mutant (Georget et al., Molecular Endocrinology, 20(4): 724-734, 2006) and an MMTV-Luciferase reporter plasmid based on pGL4.14 14 (#E6691, Promega Corporation, Madison, Wis., USA). The compound to be tested was added at a concentration range varying from 1×10^−9 to 1×10^−6 M together with 1×10^−10 R1881. After 24 h incubation at 37° C. in a 5% CO2 atmosphere, 100 μl of Steady Glo Lysis and Detection reagent (Steady Glo Luciferase assay system E2550 from Promega Corporation. Madison, Wis., USA) were added. Antagonistic activity was determined by measuring Luciferase activity in a Victor 3 Luminometer (PerkinElmer, Waltham, Mass., USA) using the Steady Glo Luciferase Assay (E2550, Promega). IC50 values were calculated for anti-androgenic activity.

[5] = system: VCaP cells; test: Proliferation assay with VCaP cells; type: cell-based; conditions: Homo sapiens, 168 h, R1881 (1×10^−10) stimulated growth
Method: Proliferation Assay with VCaP Cells
VCaP cells ((Korenchuk et al., In Vivo 15: 163-168, 2001)) were seeded at 16 000 cells/well in 96-well plates in DMEM (F0445, Biochrom AG, Berlin, Germany) with phenol red supplemented with 10% charcoal-stripped serum. After 1 day, the cells were treated with R1881 (1×10^−10) and compound (day 0). Cell number was determined by Alamar Blue (DAL1100, Invitrogen, Life Technologies, Lohne, Germany) staining (2.5 h) at day 0 and day 7. Fluorescence was determined in Victor3 (Excitation 530 nm; emission 590 nm). Stimulated growth was defined as the signal measured at day 7 for cells treated only with R1881. Basal level was defined as the signal measured at day 7 for cells grown without R1881.

[6] = day 7, read-out: Antiproliferative activity VCaP IC50
[7] = day 7, read-out: inhibition IC50 (VCaP)

Row | Structure (SMILES) | EC50 [1] [nM] | IC50 [2] [nM] | IC50 [3] [nM] | IC50 [4] [nM] | IC50 [5, 6] [nM] | IC50 [5, 7] [nM]
1 | CN=S1(=O)CCN(c2ccc(CN3C(=S)N(c4ccc(C#N)c(C(F)(F)F)c4)C(=O)C3(C)C)cn2)CC1 [Example 22, 4-[4,4-Dimethyl-3-({6-[1-(methylimino)-1-oxido-1λ^6-thiomorpholin-4-yl]pyridin-3-yl}methyl)-5-oxo-2-thioxoimidazolidin-1-yl]-2-(trifluoromethyl)benzonitrile] | > 10000 | 57.4 | 135 | – | – | –
2 | COc1ccc(CN2C(=S)N(c3ccc(C#N)c(C(F)(F)F)c3)C(=O)C2(C)C)cn1 [Example 8, 4-{3-[(6-Methoxypyridin-3-yl)methyl]-4,4-dimethyl-5-oxo-2-thioxoimidazolidin-1-yl}-2-(trifluoromethyl)benzonitrile] | 8860 | 49.2 | 120 | 9.18 | 92.5 | 92
3 | COc1ccc(CN2C(=S)N(c3ccc(C#N)c(C(F)(F)F)c3)C(=O)C2(C)C)cc1 [Comparative data^4] | 6810 | 379 | – | 80.2 | 860 | –
4 | Cc1nccn1-c1ccc(CN2C(=S)N(c3ccc(C#N)c(C(F)(F)F)c3)C(=O)C2(C)C)cn1 [Example 15, 4-(4,4-Dimethyl-3-{[6-(2-methyl-1H-imidazol-1-yl)pyridin-3-yl]methyl}-5-oxo-2-thioxoimidazolidin-1-yl)-2-(trifluoromethyl)benzonitrile] | > 10000 | 13.2 | 116 | 29.9 | 253 | –
5 | CC1(C)C(=O)N(c2ccc(C#N)c(C(F)(F)F)c2)C(=S)N1Cc1ccc(OCCN2CCOCC2)nc1 [Example 3, 4-[4,4-Dimethyl-3-({6-[2-(morpholin-4-yl)ethoxy]pyridin-3-yl}methyl)-5-oxo-2-thioxoimidazolidin-1-yl]-2-(trifluoromethyl)benzonitrile] | > 10000 | 118 | 127 | 79.5 | 176 | –
6 | CC1(C)C(=O)N(c2ccc(C#N)c(C(F)(F)F)c2)C(=S)N1Cc1cnc(N2CCOCC2)nc1N [Example 6, 4-(3-{[4-Amino-2-(morpholin-4-yl)pyrimidin-5-yl]methyl}-4,4-dimethyl-5-oxo-2-thioxoimidazolidin-1-yl)-2-(trifluoromethyl)benzonitrile] | 5000 | 92.8 | – | 19.3 | – | –
7 | CC1CN(c2ccc(CN3C(=S)N(c4ccc(C#N)c(C(F)(F)F)c4)C(=O)C3(C)C)cn2)CCO1 (stereo not shown) [Example 7, 4-(4,4-Dimethyl-3-{[6-(2-methylmorpholin-4-yl)pyridin-3-yl]methyl}-5-oxo-2-thioxoimidazolidin-1-yl)-2-(trifluoromethyl)benzonitrile] | > 10000 | 49.1 | 118 | 22.6 | 106 | 106
8 | CC1(C)CC(=O)N(c2ccc(CN3C(=S)N(c4ccc(C#N)c(C(F)(F)F)c4)C(=O)C3(C)C)cn2)C1 [Example 16, 4-(3-{[6-(4,4-Dimethyl-2-oxopyrrolidin-1-yl)pyridin-3-yl]methyl}-4,4-dimethyl-5-oxo-2-thioxoimidazolidin-1-yl)-2-(trifluoromethyl)benzonitrile] | > 10000 | 78.5 | 121 | 143 | – | –
9 | CC1(C)C(=O)N(c2ccc(C#N)c(C(F)(F)F)c2)C(=S)N1Cc1ccc(OC2CCOCC2)nc1 [Example 5, 4-(4,4-Dimethyl-5-oxo-3-{[6-(tetrahydro-2H-pyran-4-yloxy)pyridin-3-yl]methyl}-2-thioxoimidazolidin-1-yl)-2-(trifluoromethyl)benzonitrile] | > 10000 | 49.7 | 200 | 44.8 | – | –
